Results as given in patent US20250107544A1, “4-(3-OXO-2-(PENT-2-ENYL)CYCLOPENTYL) BUTANOIC ACID MIXTURES AND USES THEREOF” (Valent BioSciences LLC., priority 2023, published 2025).

How the values were obtained:
[1] = system: unripened apples, Pink Lady variety; test: Apple coloration in Pink Lady variety (Example 2), percent red pixel area after foliar spray; format: in vivo; conditions: for Average % Red Pixel Area: 34 hours post spray; for % change from control: vs 0.05% Regulaid control
Description: (§1) To determine if the mixture provided unexpected results, the observed combined efficacy (“OCE”) was divided by the expected combined efficacy (“ECE”) wherein the ECE is calculated by the Abbott method: […]
(§2) wherein ECE is the expected combined efficacy and in which A and B are the percent change from control given by the single active ingredients. If the ratio between the OCE of the mixture and the ECE of the mixture is greater than 1, then greater than expected interactions are present in the mixture. (Gisi, Synergistic Interaction of Fungicides in Mixtures, The American Phytopathological Society, 86:11, 1273-1279,1996).
10 sets of unripened apples, Pink Lady variety, harvested three weeks before the normal harvest date, were each foliar sprayed with either 1) 0.05% Regulaid® as a control, 2) 10 ppm OPC4, 3) 100 ppm OPC4, 4) 100 ppm ACC, 5) 100 ppm jasmonic acid, 6) a mixture of 10 ppm OPC4 and 100 ppm ACC, 7) a mixture of 100 ppm OPC4 and 100 ppm ACC, 8) a mixture of 10 ppm OPC4 and 100 ppm jasmonic acid and 9) a mixture of 100 ppm OPC4 and 100 ppm jasmonic acid. 34 hours post spray application percent red pixel area (shaded) was measured. Percent red pixel area is an indication of the coloration of the apple fruit.

[2] = system: unripened apples, Pink Lady variety; test: Apple coloration in Pink Lady variety (Example 1), percent red pixel area after foliar spray; format: in vivo; conditions: for Average % Red Pixel Area: 34 hours post spray; for % change from control: vs 0.05% Regulaid control
Description: 10 sets of unripened apples, Pink Lady variety, harvested three weeks before the normal harvest date, were each foliar sprayed with either 1) 0.05% Regulaid® as a control, 2) 30 ppm OPC4, 3) 100 ppm OPC4, 4) 300 ppm OPC4, 5) 1,000 ppm OPC4, 6) 50 ppm ACC, 7) 50 ppm jasmonic acid, 8) a mixture of 30 ppm OPC4 and 50 ppm ACC, 9) a mixture of 100 ppm OPC4 and 50 ppm ACC, 10) a mixture of 300 ppm OPC4 and 50 ppm ACC, 11) a mixture of 1,000 ppm OPC4 and 50 ppm ACC, 12) a mixture of 30 ppm OPC4 and 50 ppm jasmonic acid, 13) a mixture of 100 ppm OPC4 and 50 ppm jasmonic acid, 14) a mixture of 300 ppm OPC4 and 50 ppm jasmonic acid, 15) a mixture of 1,000 ppm OPC4 and 50 ppm jasmonic acid. 34 hours post spray application percent red pixel area (shaded) was measured. Percent red pixel area is an indication of the coloration of the apple fruit.
as §1, §2

| Structure (SMILES) | Average % Red Pixel Area ([1]; 100 ppm foliar spray) [%] | % change from control ([1]; 100 ppm foliar spray) [%] | Average % Red Pixel Area ([2]; 50 ppm foliar spray) [%] | % change from control ([2]; 50 ppm foliar spray) [%] | Average % Red Pixel Area ([1]; 10 ppm foliar spray) [%] | % change from control ([1]; 10 ppm foliar spray) [%] | Average % Red Pixel Area ([2]; 30 ppm foliar spray) [%] | % change from control ([2]; 30 ppm foliar spray) [%] | Average % Red Pixel Area ([2]; 100 ppm foliar spray) [%] | % change from control ([2]; 100 ppm foliar spray) [%] | Average % Red Pixel Area ([2]; 300 ppm foliar spray) [%] | % change from control ([2]; 300 ppm foliar spray) [%] | Average % Red Pixel Area ([2]; 1000 ppm foliar spray) [%] | % change from control ([2]; 1000 ppm foliar spray) [%] |
| --- | --- | --- | --- | --- | --- | --- | --- | --- | --- | --- | --- | --- | --- | --- |
| NC1(C(=O)O)CC1 [ACC, 1-amino-1-cyclopropanecarboxylic acid, reference compound] | 19.32 | −0.20 | 9.33 | 0.23 |  |  |  |  |  |  |  |  |  |  |
| CC/C=C\C[C@H]1C(=O)CC[C@@H]1CC(=O)O [JA, jasmonic acid, reference compound] | 49.9 | 1.06 | 39.64 | 4.22 |  |  |  |  |  |  |  |  |  |  |
| CCC=CCC1C(=O)CCC1CCCC(=O)O (centres unmarked) [OPC4, 4-(3-oxo-2-(pent-2-enyl)cyclopentyl) butanoic acid] | 43.59 | 0.80 |  |  | 18.85 | −0.22 | 13.37 | 0.76 | 36.02 | 3.74 | 65.59 | 7.63 | 54.35 | 6.15 |
